Test results reported in publication PMC9658545, “From Nature to Synthetic Compounds: Novel 1(N),2,3 Trisubstituted-5-oxopyrrolidines Targeting Multiple Myeloma Cells” (International Journal of Molecular Sciences, 2022).
Read-outs that look alike come from different tables or passages of the source.

What was measured:
RPMI 8226 cells [1] = test: MTT assay of cell viability in RPMI 8226 cells; format: cell-based, Human; settings: for fold more active than the reference compound Hib-ester: after 24 h of treatment
Method: RPMI 8226 cells were treated with different concentrations of all compounds (10, 100 and 500 µM) at 24 h. The concentrations have been chosen based on the results previously obtained with Hib-ester. MTT assay was performed to assess cell viability and calculate the IC50 (Table 1). For compounds not showing a significant reduction of cell viability at the concentration of 500 µM, the IC50 was not calculated, and they have been considered not effective. Untreated cells were used as control (CTRL).
Human multiple myeloma RPMI 8226 cells were cultured in RPMI 1640 medium supplemented with 10% fetal bovine serum, 1% L-glutamine and 1% penicillin and streptomycin (Euroclone, Italy). Human glioblastoma U87-MG cells were cultured in DMEM low glucose supplemented with 10% fetal bovine serum, 1% L-glutamine and 1% penicillin and streptomycin (Euroclone, Italy). Cells were incubated in a humidified incubator at 37 °C and 5% CO2. A stock solution of all compounds in DMSO (50 mM) was prepared and then directly diluted in culture medium.
Cells were seeded in 96-well plates at a density of 1 × 10^4 cells/well and were treated after 24 h with RA, AM or SU molecules. After 24 h, a 3-(4,5-dimethylthiazol-2-yl)-2,5-diphenyltetrazolium bromide (MTT, Sigma Aldrich, United States) solution was added to each well to reach a final concentration of 0.5 mg/mL. After 4 h of incubation (4 h for RPMI 8226 cells), formazan salt was solubilized in ethanol and absorbance was measured at 570 nm in a microplate reader (BMG-Labtech, Ortenberg, Germany).

RPMI 8226 cells [2] = test: MTT assay of cell viability in RPMI 8226 cells; format: cell-based, Human; settings: 24, 48 and 72 h
[3] = 24 h, MTT assay, concentrations 10, 100 and 500 µM, n.e.* = compounds not effective at 500 µM
[4] = Homo sapiens, RPMI-8226, 24 h, MTT assay, concentrations 10, 100 and 500 µM, n.e.* = compounds not effective at 500 µM, read-out: IC50 μM RPMI8226
[5] = Homo sapiens, RPMI-8226, 24 h of treatment, read-out: IC50 (MTT)
[6] = 24 h, MTT assay, concentrations 10, 100 and 500 µM, n.e.* = compounds not effective at 500 µM, read-out: IC50 μM RPMI8226
[7] = 24 h of treatment, read-out: IC50 (MTT)

In the case of `COC(=O)C1CC(=O)NC1C(=O)OC` [(2R,3R/2S,3S)-8, Dimethyl 5-Oxopyrolidine-2,3-dicarboxylate], the “IC50 μM RPMI8226” value (RPMI 8226 cells [1]; [3]) is reported as “n.e.*”.
`COC(=O)C1CC(=O)N(CC(C)C)C1c1ccccc1` [(2R,3R/2S,3S)-10, Methyl 1-Isobutyl-5-oxo-2-phenylpyrrolidine-3-carboxylate] was tested, and the IC50 (RPMI 8226 cells [1]; [4]) was 265 ± 49 µM, the IC50 (RPMI 8226 cells [1]; [5]) was less than 350 µM and the “fold more active than the reference compound Hib-ester” value (RPMI 8226 cells [1]) was “at least 6 fold”.
In the case of “Methyl 1-Benzyl-2-(3,5-dimethoxyphenyl)-5-oxopyrrolidine-3-carboxylate [(2R,3R/2S,3S)-16]”, the “change of MTT efficacy over time” value (RPMI 8226 cells [2]) is reported as “did not show a significant increase in efficacy over time”, the IC50 (RPMI 8226 cells [1]; [6]) is reported as 138 ± 27 µM and the IC50 (RPMI 8226 cells [1]; [7]) is reported as less than 350 µM. For the same compound, the “fold more active than the reference compound Hib-ester” value (RPMI 8226 cells [1]) was “at least 6 fold”.
`CC(C)CN1C(=O)CCC(C(=O)O)C1c1ccccc1` [(2R,3R/2S,3S)-17, 1-Isobutyl-6-oxo-2-phenylpiperidine 3-Carboxylic Acid] was tested, and the “IC50 μM RPMI8226” value (RPMI 8226 cells [1]; [3]) was “n.e.*”.
For `COC(=O)C1CCC(=O)N(Cc2ccccc2)C1c1ccccc1` [(2R,3R/2S,3S)-20, Methyl 1-Benzyl-6-oxo-2-phenylpiperidine-3-carboxylate], the “change of MTT efficacy over time” value (RPMI 8226 cells [2]) was “did not show a significant increase in efficacy over time”, the IC50 (RPMI 8226 cells [1]; [4]) was 152 ± 29 µM and the IC50 (RPMI 8226 cells [1]; [5]) was less than 350 µM. For the same compound, the “fold more active than the reference compound Hib-ester” value (RPMI 8226 cells [1]) was “at least 6 fold”.
With `O=C1CC(C(=O)O)C(c2ccccc2)O1` [(2R,3R/2S,3S)-1] the “IC50 μM RPMI8226” value (RPMI 8226 cells [1]; [3]) was “n.e.*”.
In the case of `COC(=O)C1CCC(=O)N(CC(C)C)C1c1ccccc1` [(2R,3R/2S,3S)-18, Methyl 1-Isobutyl-6-oxo-2-phenylpiperidine-3-carboxylate], the IC50 (RPMI 8226 cells [1]; [4]) is reported as 301 ± 29 µM, the IC50 (RPMI 8226 cells [1]; [5]) is reported as less than 350 µM and the “fold more active than the reference compound Hib-ester” value (RPMI 8226 cells [1]) is reported as “at least 6 fold”.
In the case of “1-Benzyl-2-(3,5-dimethoxyphenyl)-5-oxopyrrolidine-3-carboxylic Acid [(2R,3R/2S,3S)-15]”, the “IC50 μM RPMI8226” value (RPMI 8226 cells [1]; [3]) is reported as “n.e.*”.
In the case of “Methyl 2-(3,5-Dimethoxyphenyl)-1-isobutyl-5-oxopyrrolidine-3-carboxylate [(2R,3R/2S,3S)-12]”, the IC50 (RPMI 8226 cells [1]; [6]) is reported as 263 ± 41 µM, the IC50 (RPMI 8226 cells [1]; [7]) is reported as less than 350 µM and the “fold more active than the reference compound Hib-ester” value (RPMI 8226 cells [1]) is reported as “at least 6 fold”.
`CCCCN1CC(C(=O)OC)CC1=O` (racemic) [(S/R)-5, Methyl 1-Butyl-5-oxopyrrolidine-3-carboxylate] was tested, and the “IC50 μM RPMI8226” value (RPMI 8226 cells [1]; [3]) was “n.e.*”.
With `COC(=O)[C@@H]1CCC(=O)N1` [(S)-3, (S)-Methyl-5-oxopyrrolidine-2-carboxylate] the “IC50 μM RPMI8226” value (RPMI 8226 cells [1]; [3]) was “n.e.*”.
For `COC(=O)C1CC(=O)N(C)C1` (racemic) [(S/R)-7, Methyl 1-Methyl-5-oxopyrrolidine-3-carboxylate], the “IC50 μM RPMI8226” value (RPMI 8226 cells [1]; [3]) was “n.e.*”.
With `O=C(O)C1CCC(=O)N(Cc2ccccc2)C1c1ccccc1` [(2R,3R/2S,3S)-19, 1-Benzyl-6-oxo-2-phenylpiperidine 3-Carboxylic Acid] the “IC50 μM RPMI8226” value (RPMI 8226 cells [1]; [3]) was “n.e.*”.
In the case of `COC(=O)C1CNC(=O)C1` (racemic) [(S/R)-6], the “IC50 μM RPMI8226” value (RPMI 8226 cells [1]; [3]) is reported as “n.e.*”.
`CCCCN1CC(C(=O)O)CC1=O` (racemic) [(S/R)-4] was tested, and the “IC50 μM RPMI8226” value (RPMI 8226 cells [1]; [3]) was “n.e.*”.
For `COC(=O)[C@@H]1CC(=O)O[C@@H]1c1ccccc1` [(2R,3R/2S,3S)-2, Methyl (2S,3R)-5-Oxo-2phenyltetrahydrofuran-3-Carboxylate], the “IC50 μM RPMI8226” value (RPMI 8226 cells [1]; [3]) was “n.e.*”.
With “2-(3,5-Dimethoxyphenyl)-1-isobutyl-5-oxopyrrolidine-3-carboxylic Acid [(2R,3R/2S,3S)-11]” the “IC50 μM RPMI8226” value (RPMI 8226 cells [1]; [3]) was “n.e.*”.
